# Data: patent publication US9539221B2, “Method of treating airway diseases with β-adrenergic inverse agonists” (EGB ADVISORS, LLC, priority 2003, dated 2017)
# Entries after “also recorded” stand apart in the source; their conditions may differ.
# Experiments:
# asthmatic mice [1] = assay: Airway resistance (Raw) response to methacholine provocation in murine model of asthma (forced oscillation); type: in vivo, Balb/cJ mice
# Procedure: Balb/cJ mice aged 6 weeks (Jackson Animal Laboratory, Bar Harbor, Me.) were housed under specific pathogen-free conditions and fed a chicken ovalbumin-free diet. The Animal Research Ethics Boards of both the University of Houston and the Baylor College of Medicine approved all experiments reported here. […] Mice were sensitized with subcutaneous injection of 25 μg of ovalbumin adsorbed to aluminum hydroxide on protocol days 2, 9, and 16. Subsequently, mice were given 50 μL of saline solution containing 25 μg of ovalbumin intranasally, on a daily basis, from protocol days 23 through 27. A group of ovalbumin-sensitized saline-challenged mice serves as controls for systemic sensitization and respiratory challenges with ovalbumin. Prior to intranasal administrations, mice were sedated with halothane vapor.
# To examine the effects of duration of β-adrenergic ligand therapy on the phenotype of the murine model of asthma, the experimental drugs were administered either acutely or chronically to different groups of asthmatic mice.
# Asthmatic mice on acute therapy were given a single intravenous bolus infusion of either β-adrenergic drug or normal saline on protocol day 28, 15 minutes before airway responsiveness to methacholine was determined. […] Asthmatic mice on chronic therapy were treated with the β-adrenergic drug during protocol days 1 to 28. […] These concentrations were chosen based on those producing therapeutic effects in mice in previously published studies. The non-asthmatic mice were fed normal chow.
# On protocol day 28, mice were anesthetized, tracheotomized, and connected to a computer-controlled small animal ventilator (Flexivent, Scientific Respiratory Equipment, Inc., Montreal, Canada). Airway resistance (Raw) was measured using the forced oscillation technique. The cellular composition of bronchoalveolar lavage fluid (BALF) was also determined.
# To induce airway constriction, a solution containing 150 μg/mL of acetyl-α-methylcholine chloride (methacholine) (Sigma Chemical, St. Louis, Mo.) was infused intravenously at constant rates using a syringe infusion pump (Raze Scientific Instruments, Stanford, Conn.). […] Each methacholine dose was administered for 3 to 5 minutes, during which data were sampled at 1-minute intervals and then averaged.
# The complex input impedance of the respiratory system was computed and the value of the real part of respiratory system impedance at 19.75 Hz was taken to reflect the magnitude of airway resistance (Raw). To examine the degree of airway responsiveness of each animal, the values for Raw as a function of methacholine doses were plotted. The largest value for Raw achieved in response to methacholine stimulation was referred to as Rawpeak. For mice that achieved a plateau in the methacholine dose-Raw response curve, the ED50 was calculated by linear interpolation using the GraphPad Prism4 (GraphPad Software, Inc.). […] The Bonferroni test was used to examine the statistical differences between experimental groups. The effects of acute drug treatments on baseline respiratory system mechanics were assessed using a two-tailed paired t-test. A value of P<0.05 was considered significant.
# For these experiments, salbutamol was used for chronic administration at 0.5 mg/kg/day with a minipump and for acute administration at 0.15 mg/kg by i.v. bolus 15 minutes prior to challenge. Alprenolol was used at a high dose of 7200 ppm in chow or at a low dose of 720 ppm in chow. Carvedilol was used at a high dose of 2400 ppm in chow or at a low dose of 720 ppm in chow.
# β2-adrenergic receptor [2] = target: β2-adrenergic receptor (Mus musculus, UniProt P18762); assay: β-adrenergic receptor density in lung membranes of treated asthmatic mice by ICYP radioligand binding; type: in vivo; conditions: for Bmax (β-adrenergic receptor density): 15 Minutes drug treatment
# Procedure: (§1) β2-adrenergic receptor numbers were measured in asthmatic mice as follows. […] Mice were sacrificed and lung membranes were isolated as follows. Frozen lung tissue was homogenized in an ice-cold buffer containing 0.32 M sucrose and 25 mM Tris (pH 7.4) using a polytron (Pro 200, Pro Scientific, Inc.). The homogenate was centrifuged at 1000×g for 10 min at 4° C. The resulting supernatant was centrifuged at 40,000×g for 20 min at 4° C. The pellet was suspended in an ice-cold 25 mM Tris-HCl buffer (pH 7.4) and centrifuged at 40,000×g for 20 min at 4° C. The final pellet was suspended in 200 μL of 25 mM Tris-HCl (pH 7.4); membrane protein concentration was determined by BCA protein assay kit. […] The incubation was done at 37° C. for 2 h and terminated by rapid vacuum filtration through glass fiber filters. The filters were washed three times with 250 μL of cold wash buffer (25 mM Tris-HCl, pH 7.4) and the radioactivity determined in a counter. […] Receptor densities are expressed as femtomoles of sites per milligram of protein. Bmax is determined by nonlinear regression of the saturation binding curves.
# β2-adrenergic receptor [3] = assay: as above; type: in vivo; conditions: 2 days of administration
# Procedure: as §1
# tracheas from the mice = conditions: asthmatic mice chronically treated; WO 02/29534; cited from earlier work
# patients with CHF = conditions: cited from earlier work
# asthmatic mice [4] = assay: Combination therapy carvedilol and salbutamol on airway hyperresponsiveness; type: in vivo, Balb/cJ mice; conditions: 28 days carvedilol 2400 ppm in chow, alone or with salbutamol chronic (0.5 mg/kg/day) or acute ([…]); highest dose of methacholine
# Procedure: Mice (Balb/cJ) aged 6 weeks were housed under specific pathogen-free conditions and fed a chicken ovalbumin-free diet. Mice were systemically sensitized with ovalbumin adsorbed to aluminum hydroxide. Mice were treated as follows: CAR/SAL 28D=for 28 days mice (n=6-12) were administered carvedilol (2400 ppm in animal chow) and salbutamol (subcutaneous delivery of 0.5 mg/kg/day in an Alzet #2400 osmotic minipump); NTX S/C=mice (n=6-12) no drug treatment for 28 days; CTRL=mice (n=6-12) no drug treatment for 28 days, not subsequently challenged; CARHD 28D=for 28 days mice (n=6-12) were administered carvedilol only (2400 ppm in animal chow); CARHD 28D SAL AC=for 28 days mice (n=6-12) were administered carvedilol (2400 ppm in animal chow) and 15 minutes prior to measuring airway hyperresponsiveness, salbutamol was administered at a dose of […].
# To measure airway hyperresponsiveness after 28 days, all mice except the CTRL (control) mice were challenged with ovalbumin and then all mice were anesthetized, tracheotomized, and connected to a Flexivent small animal ventilator to measure airway resistance (Raw) by the forced oscillation technique. To induce airway constriction, a solution containing 150 μg/mL of methacholine was infused using a syringe infusion pump. The methacholine infusion was started at 0.008 mL/min and its rate was doubled stepwise up to a maximum […]. […]
# [5] = acute administration; cited from earlier work
# β-adrenergic receptor = conditions: U.S. Pat. No. 5,116,867; cited from earlier work
# [6] = cited from earlier work
# [7] = tested on: sensitized and allergen-challenged mice; assay: Acute nadolol with aminophylline, methacholine-induced bronchoconstriction; type: in vivo; conditions: aminophylline 100 mg/kg i.p. during methacholine; untreated and nadolol-treated mice
# Procedure: Mice were sensitized to the allergen ovalbumin as described in Example 1. […] At time point 1 (time=−10 min) baseline airway resistance of the mice was determined. At time point 2 (time=−5 min) methacholine was infused into mice to reach their EC70.
# asthmatic mice [8] = assay: Airway resistance (Raw) response to methacholine provocation in murine model of asthma (forced oscillation); type: in vivo, Balb/cJ mice; conditions: 7 days, metoprolol 20 mg/kg 3× daily subcutaneous, timolol 20 mg/kg in chow
# [9] = large trial; cited from earlier work
# [10] = asthmatic mice, chronic: 28 days (chow; salbutamol by osmotic minipump)
# [11] = lung membranes of asthmatic mice, mean±SEM
# [12] = 28 Days drug treatment, lung membranes of asthmatic mice, mean±SEM
# β2-adrenergic receptor (Mus musculus, UniProt P18762), sequence (P18762 whole entry): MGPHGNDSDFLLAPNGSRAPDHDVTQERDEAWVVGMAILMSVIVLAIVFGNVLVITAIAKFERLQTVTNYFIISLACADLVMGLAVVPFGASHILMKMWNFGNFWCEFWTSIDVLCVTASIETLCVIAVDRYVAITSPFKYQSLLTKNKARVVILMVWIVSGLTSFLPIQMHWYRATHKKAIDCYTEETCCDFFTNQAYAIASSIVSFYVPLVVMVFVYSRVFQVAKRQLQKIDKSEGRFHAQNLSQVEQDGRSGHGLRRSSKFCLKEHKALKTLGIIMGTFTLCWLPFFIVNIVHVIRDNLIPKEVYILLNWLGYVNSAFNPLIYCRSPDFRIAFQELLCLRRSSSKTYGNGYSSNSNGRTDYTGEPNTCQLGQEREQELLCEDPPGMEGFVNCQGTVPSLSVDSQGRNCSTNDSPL
structure (smiles),measurement,setting,value
"C=CCc1ccccc1OCC(O)CNC(C)C (stereo not shown) [Alprenolol, alprenolol]","airway responsiveness to methacholine provocation (airway resistance, Raw)",asthmatic mice [1]; [10],does not reduce airway hyperresponsiveness compared to untreated asthmatic mice; also recorded: provides no benefit upon chronic administration
same,Bmax (β-adrenergic receptor density),β2-adrenergic receptor [2]; [11],299.5 ± 12.19 femtomoles of sites per milligram of protein
same,βmax (β-adrenergic receptor density),β2-adrenergic receptor [2]; [12],179.2 ± 53.05 femtomoles of sites per milligram of protein
same,Increased β2AR density,β2-adrenergic receptor [3],no
same,effectiveness on contraction of excised tracheas in response to methacholine (rank),tracheas from the mice,most effective compound
"CC(C)(Cc1c[nH]c2ccccc12)NCC(O)COc1ccccc1C#N (stereo not shown) [Bucindolol, bucindolol]",clinical benefit in congestive heart failure,patients with CHF,failed to demonstrate any benefit over placebo
"COc1ccccc1OCCNCC(O)COc1cccc2[nH]c3ccccc3c12 (stereo not shown) [Carvedilol, carvedilol]",sensitivity of the responsiveness to methacholine,"asthmatic mice [1]; asthmatic mice, chronic administration",shifts the sensitivity of the responsiveness to methacholine to lower concentrations
same,"airway responsiveness to methacholine provocation (airway resistance, Raw)",asthmatic mice [1]; [10],does reduce airway hyperresponsiveness; also recorded: reduced the responsiveness of asthmatic mice to methacholine provocation
same,protection from airway hyperresponsiveness,"asthmatic mice [1]; chronic administration, high and low dose in chow (Example 6)",providing protection from airway hyperresponsiveness
same,Bmax (β-adrenergic receptor density),β2-adrenergic receptor [2]; [11],86.3 ± 19.42 femtomoles of sites per milligram of protein
same,βmax (β-adrenergic receptor density),β2-adrenergic receptor [2]; [12],904.1 ± 43.46 femtomoles of sites per milligram of protein
same,Increased β2AR density,β2-adrenergic receptor [2]; 28 days of administration,showed an increase in receptor density
same,increase of the level of β2-adrenergic receptors over the non-treated mice,"β2-adrenergic receptor [2]; chronic administration, versus untreated methacholine-challenged asthmatic mice",over 10 fold
same,Increased β2AR density,β2-adrenergic receptor [3],no
same,bronchoconstriction / airway hyperresponsiveness to methacholine,asthmatic mice [4],higher bronchoconstriction than these treatments but less than the non-drug treated sensitized and challenged (NTX S/C) mice
same,clinical benefit in congestive heart failure,patients with CHF,significant mortality reduction
CC(C)NC[C@@H](O)COc1cccc2ccccc12 [D-propranolol],antigen-induced bronchoconstriction and airway hyperresponsiveness,[5],beneficial in inhibiting antigen-induced bronchoconstriction and reducing airway hyperresponsiveness
same,potency in inhibiting the β-adrenergic receptor relative to the L-form,β-adrenergic receptor,1/100
"Cc1ccc(OCC(O)C(C)NC(C)C)c2c1CCC2 (stereo not shown) [ICI-118,551]",effectiveness on contraction of excised tracheas in response to methacholine (rank),tracheas from the mice,"then ICI-118,551"
"CC(C)NC[C@H](O)COc1cccc2ccccc12 [L-form, propranolol]",specific lung resistance,[5],increased specific lung resistance
"CC(C)(C)NCC(O)c1ccc(O)c(CO)c1 (stereo not shown) [Salbutamol, salbutamol]","airway responsiveness to methacholine provocation (airway resistance, Raw)","asthmatic mice [1]; asthmatic mice, acute: single intravenous bolus 15 minutes before methacholine",reduced the level of airway responsiveness to methacholine provocation and the level of airway resistance
same,"airway responsiveness to methacholine provocation (airway resistance, Raw)",asthmatic mice [1]; [10],no protection was observed
same,Bmax (β-adrenergic receptor density),β2-adrenergic receptor [2]; [11],256.5 ± 29.24 femtomoles of sites per milligram of protein
same,βmax (β-adrenergic receptor density),β2-adrenergic receptor [2]; [12],97.0 ± 23.02 femtomoles of sites per milligram of protein
same,Kd,"β2-adrenergic receptor [2]; 28 Days drug treatment, lung membranes of asthmatic mice, mean±SEM, read-out: KD (apparent, of radioligand ICYP)",0.225 nM
same,Increased β2AR density,β2-adrenergic receptor [3],no
same,bioavailability of inhaled drug,[6]; 10 patients with cystic fibrosis versus healthy adults,greater than that in healthy adults
Cn1c(=O)c2[nH]cnc2n(C)c1=O [aminophylline],airway resistance after aminophylline administration,[7],significant and sustained drop in airway resistance; also recorded: can alleviate the acute effects on airway hyperresponsiveness of nadolol administration
CCCC1O[C@@H]2C[C@H]3[C@@H]4CCC5=CC(=O)C=C[C@]5(C)[C@H]4[C@@H](O)C[C@]3(C)[C@]2(C(=O)CO)O1 (stereo partly shown) [budesonide],"plasma clearance of the 2 enantiomers per kilogram of bodyweight, children versus adults",[6]; 6 children with asthma versus 11 healthy adults,about 50%
COCCc1ccc(OCC(O)CNC(C)C)cc1 (stereo not shown) [metoprolol],airway hyperresponsiveness (Raw) to methacholine,asthmatic mice [8],effective in reducing airway hyperresponsiveness in asthmatic mice
same,clinical benefit in congestive heart failure,patients with CHF,significant mortality reduction
OCc1cc(C(O)CNCCCCCCOCCCCc2ccccc2)ccc1O (stereo not shown) [salmeterol],death rates,[9],stopped due to increased death rates
CC(C)(C)NCC(O)c1cc(O)cc(O)c1 (stereo not shown) [terbutaline],rate of absorption through the lung,[6]; healthy smokers versus healthy nonsmokers,more rapidly in healthy smokers than in healthy nonsmokers
CC(C)(C)NC[C@H](O)COc1nsnc1N1CCOCC1 [timolol],airway hyperresponsiveness (Raw) to methacholine,asthmatic mice [8],effective in reducing airway hyperresponsiveness in asthmatic mice
